Source: ChEMBL document CHEMBL1201862, “PubChem BioAssay data set” (2004)
Calls of active or inactive are those of the source.

What was measured:
[1] = biological target: T1, Sentrin-specific protease 7 (Homo sapiens, UniProt Q9BQF6); assay type: functional;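 also: Luminescence-based dose-response confirmation of ultra-high-throughput screening hits, measuring inhibition of SENP7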
T1 sequence (Q9BQF6 whole entry): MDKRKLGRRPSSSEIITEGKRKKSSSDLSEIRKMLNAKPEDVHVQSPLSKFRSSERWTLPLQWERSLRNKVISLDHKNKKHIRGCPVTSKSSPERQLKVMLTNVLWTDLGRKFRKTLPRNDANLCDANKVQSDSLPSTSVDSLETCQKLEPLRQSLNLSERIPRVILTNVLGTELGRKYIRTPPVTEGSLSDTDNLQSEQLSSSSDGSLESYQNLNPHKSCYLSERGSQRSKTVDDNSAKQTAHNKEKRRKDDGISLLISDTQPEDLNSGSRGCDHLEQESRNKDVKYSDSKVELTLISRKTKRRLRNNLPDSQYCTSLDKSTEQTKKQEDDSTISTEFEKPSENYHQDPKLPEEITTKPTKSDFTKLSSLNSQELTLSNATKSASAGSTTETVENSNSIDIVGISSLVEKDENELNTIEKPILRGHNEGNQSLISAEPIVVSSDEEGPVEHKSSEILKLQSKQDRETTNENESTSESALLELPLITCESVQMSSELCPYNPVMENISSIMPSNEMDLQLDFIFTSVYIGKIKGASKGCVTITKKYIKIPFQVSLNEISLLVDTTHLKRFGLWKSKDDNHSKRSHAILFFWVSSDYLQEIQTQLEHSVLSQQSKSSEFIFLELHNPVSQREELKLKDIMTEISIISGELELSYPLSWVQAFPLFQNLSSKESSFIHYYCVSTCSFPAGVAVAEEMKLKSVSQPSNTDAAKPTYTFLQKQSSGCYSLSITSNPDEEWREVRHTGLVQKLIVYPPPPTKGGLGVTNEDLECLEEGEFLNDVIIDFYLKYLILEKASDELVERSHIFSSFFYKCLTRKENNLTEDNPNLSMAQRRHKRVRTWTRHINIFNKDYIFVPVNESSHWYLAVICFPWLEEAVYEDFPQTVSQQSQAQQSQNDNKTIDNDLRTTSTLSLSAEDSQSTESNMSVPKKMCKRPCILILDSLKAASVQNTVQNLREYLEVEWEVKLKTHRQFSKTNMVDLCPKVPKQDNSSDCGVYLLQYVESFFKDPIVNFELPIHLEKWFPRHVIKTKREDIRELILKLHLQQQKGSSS

[2] = biological target: T2, Sentrin-specific protease 8 (Homo sapiens, UniProt Q96LD8); assay type: functional;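 also: luminescence read-out of SENP8 inhibition, dose-response confirmation following an ultra-high-throughput screen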
T2 sequence (Q96LD8 whole entry): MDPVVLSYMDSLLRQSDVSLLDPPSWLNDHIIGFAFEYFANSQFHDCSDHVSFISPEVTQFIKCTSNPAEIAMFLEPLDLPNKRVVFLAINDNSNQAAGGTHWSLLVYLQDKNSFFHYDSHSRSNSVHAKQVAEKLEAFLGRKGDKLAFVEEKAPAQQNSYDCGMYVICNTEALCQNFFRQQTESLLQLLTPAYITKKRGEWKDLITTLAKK

[3] = biological target: Tyrosyl-DNA phosphodiesterase 2 (Homo sapiens, UniProt O95551); test: potency against TDP2 phosphodiesterase activity – biochemical, epi absorbance, IC50, dose response (AID 743297)
Tyrosyl-DNA phosphodiesterase 2, sequence (O95551 whole entry): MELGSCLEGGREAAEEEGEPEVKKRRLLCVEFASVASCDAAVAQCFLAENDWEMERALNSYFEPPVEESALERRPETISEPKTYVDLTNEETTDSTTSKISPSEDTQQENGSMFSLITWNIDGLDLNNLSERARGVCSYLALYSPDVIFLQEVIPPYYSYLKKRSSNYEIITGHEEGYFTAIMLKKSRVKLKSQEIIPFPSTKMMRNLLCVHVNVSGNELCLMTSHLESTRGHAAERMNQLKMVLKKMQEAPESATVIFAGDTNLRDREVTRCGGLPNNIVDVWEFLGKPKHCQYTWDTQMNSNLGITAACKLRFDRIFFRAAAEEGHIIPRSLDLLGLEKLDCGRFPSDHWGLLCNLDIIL

[4] = NIH-3T3 fibroblast cytotoxicity, dose response, cytotoxicity control, cell-based, fluorescence, Alamar Blue, secondary assay (AID 2327); assay type: functional;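 also: NIH-3T3 mouse fibroblasts cultured with fluconazole at 8 µg/mL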
cells [5] = assay type: functional, cell-based
cells [6] = assay type: functional, cell-based; remark: listed apart in the source
INS1 = test: INS-1E survival protection against cytokine death – cell-based, luminescence, retest, dose response (AID 449756); assay type: functional; conditions: Rattus norvegicus;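 also: cell death triggered by IL-1 beta plus TNF-alpha plus IFN-gamma mixture; protective hits raise ATP signal compared with cytokine alone wells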

Structure (SMILES)	IC50 [1]	IC50 [2]	IC50 [3]	EC50 [4]	EC50 (cells [5])	EC50 (cells [6])	AC50 (INS1)
CC(C)N(C(=O)Nc1ccc2nsnc2c1)C(C)C	3.49 µM (active)	2.41 µM (active)	8.96 µM (active)	–	–	–	–
CC(C)n1cnc2c(NCc3ccccc3)cc(OCC3CCN(C)CC3)cc21	5.65 µM (active)	4.97 µM (active)	–	–	–	–	–
NS(=O)(=O)c1ccc(NC2=CC(=O)C(=O)c3ccccc32)cc1	7.93 µM (active)	4.96 µM (active)	5.59 µM (active)	–	–	–	–
O=C(N/N=C/c1ccc(O)cc1O)c1ccc(CN2C(=O)c3cccc4cccc2c34)cc1	–	–	–	4.96 µM (active)	31 µM (active)	> 350 µM (not active)	0.768 µM (active)
CCC(=O)NC(c1ccccc1OC)c1ccc2cccnc2c1O (stereo unspecified)	–	–	–	26.6 µM (inconclusive)	7.23 µM (active)	> 350 µM (not active)	1.17 µM (active)
